From patent US20130224239A1, “ALCOHOLIC EXTRACT OF FUNGI OF GENUS […] AND USE THEREOF” (KING SAUD UNIVERSITY, priority 2011, published 2013)
≈ marks a conversion by molar mass, not a printed value. Entries after “also recorded” stand apart in the source; their conditions may differ. Marks after values point to notes of the source that are not given here.

Legend:
[1] = tested on: Staphylococcus aureus infected wounds; experiment: Wound healing activity, excision wound model; type: in vivo, guinea pig
Procedure: Swiss albino mice (20-25 g), male Sprague-Dawley rats (160-180 g) and male guinea pigs (240-260 g) were employed in the study. The animals were left for 2 weeks at room conditions to ensure stabilization before use. They were maintained on standard pellet diet and water ad libitum throughout the experiment. • a) Acute Toxicity: Mice were divided into groups of 6 and the methanol extracts of C. blakesleeana, C. elegans and C. homothallica were administered orally in increasing doses. […] Rats of the 1^St group were given a vehicle (1% v/v Tween 80) in a dose of 5 ml kg^−1 and left as normal control. Rats of the 2nd, 3rd, and 4th groups were administered the methanol extracts of C. blakesleeana, C. elegans and C. homothallica, respectively in a dose of 200 mg kg^−1. All medications were administered orally via the aid of an oral tube for 35 days. […] At the end of the experimental period, blood samples (2 mL) were collected from the retro-orbital venous plexus of each rat (under ether anesthesia) into clean centrifuge tubes. The blood samples were allowed to clot at room temperature for 30 min after which they were centrifuged at 10,000 rpm for 5 minutes. Sera were separate with Pasteur pipette into sterile serum sample tubes and used for biochemical assay.
Measurement of Liver and Kidney Function Markers: • Liver functions were evaluated by measuring the serum activity of aspartate aminotransferase (AST) and alanine aminotransferase (ALT) following the method of Reitman and Frankel, Am. J. Clin. Path., 28: 55-60, alkaline phosphatase enzyme (ALP) by the method of Babson et al., Clinical Chemistry, 12: 482-490. Serum levels of total bilirubin, total proteins and albumin were also assayed. Globulin was obtained from the difference between total proteins and albumin. Serum concentrations of uric acid, urea and creatinine were determined colormetrically as measures of kidney functions. All measurements were carried out by protocols well known in the art. • c) Wound Healing Activity: The excision wound model was used to monitor wound contraction and wound closure time. Four groups of male guinea pigs were used in the experiment with 6 animals in each group. At the beginning of the experiment, the dorsal skin of each guinea pig was shaved with an electric clipper. After 24 hours, all animals were anesthetized by diethyl ether and the shaved areas were sterilized with 70% alcoholic solution. A predetermined dorsal area (15 mm×20 mm) was inflicted by cutting away a full thickness of skin (2 mm depth) using toothed forceps, scalpel and pointed scissors. A fresh surgical blade was used for the perpendicular cut in each animal and tension of skin was kept constant during the procedure. Local infection with Staphylococcus aureus was introduced into wounds using 0.5 mL of 10^8 bacteria mL^−1 inoculums. The wounds were left undressed to the open environment and the animals were kept individually in separate cages. • Wounds treatment: Wounds were air exposed and treatment began 24 h after injury. Wounds of the control animals were treated with the vehicle (1% v/v Tween 80). Guinea pigs of the second and third group were treated with total alcohol extract of C. elegans and the isolated compound (adenosine) in a concentration of 5 mg mL^−1, while animals of the fourth group were medicated with latamoxef (Moxalactam)® in a concentration of 30 μg mL^−1 (Reference group). The vehicle, extract, and reference drug were applied topically on the wound surface once a day for 18 days. […] of each tested material was applied slowly, using an insulin syringe, from the central point extending outside the wound area to ensure inclusion of the edges. Swabs were taken on day 5 to confirm the presence of the expected organisms in the pus. • Assessment of wound healing: The wound areas were measured while the animals were under anaesthesia on days 0, 4, 7, 10, 14, and 18 post-wounding by tracing the wound areas onto a transparent tracing paper. […]

Staphylococcus aureus = experiment: Minimum inhibitory concentration, agar well diffusion; type: cell-based; details: against Staphylococcus aureus
Text: (§1) For antimicrobial screening the well known disc diffusion and agar well diffusion methods were used, together with the determination of minimum inhibitory concentration (MIC), see Duguid et al., Microbial Infections, The English Language Book Society, Churchill Livingston, Edingburgh, London, 1978; vol. 1, page 110.
Agar well diffusion method: On the other hand, the agar well diffusion method was employed for determination of the minimum inhibitory concentration (MIC). The test organisms were separately seeded in the agar medium. The wells (10 mm in diameter) were cut from the agar and […] (different concentrations) was transferred into them. After incubation period, following suitable conditions for the test organism, the diameter of the inhibition zone around the discs was measured in millimeters. The obtained result was the mean of three experiments.
The minimum inhibitory concentration (MIC) of Cunninghamella blakesleeana, C. elegans, C. homothallica and successive extracts and isolated compounds of Cunninghamella elegans against Staphylococcus aureus was determined.
Minimum inhibitory concentration (MIC): The lowest concentration of an antimicrobial agent that will inhibit a visible growth of a microorganism after overnight incubation.

[2] = tested on: Salmonella typhimuium (RCMB 0104); experiment: Antimicrobial screening, disc diffusion; type: cell-based; details: Salmonella typhimuim; compounds isolated from Cunninghamella elegans
Procedure: The alcoholic extracts obtained were used for testing their antimicrobial activity. Each extract (0.5 g) was dissolved in 10 ml water. Same concentrations for the successive extracts (using diethyl ether, chloroform, ethyl acetate and n-butanol) were also prepared.
The representatives of Gram negative bacteria, namely Salmonella typhimuium (RCMB 0104), Escherichia coli (RCMB 0103), Pseudomonas aeruginosa (RCMB 0102) and Gram positive bacteria, namely Bacillus subtilis (RCMB 0107), Staphylococcus aureus (RCMB 0106), Streptococcus pyogenes (RCMB 0109), unicellular fungi, namely Candida albicans (RCMB 5002) and filamentous fungi, namely Aspergillus fumigatus (RCMB 2003) and Penicllium expansum (RCMB 1006) were used as test organisms (RCMB: The Regional Center for Mycology and Biotechnology, Al-azhar University Nasser City, Cairo, Egypt).
as §1
Disc diffusion method: The agar disc diffusion method is employed for the determination of antimicrobial activities of the extracts of the investigated fungal species. Sterilized paper discs (Whatman No. 1) ([…]) were separately soaked in the extracts and transferred onto the surface of growth media seeded with the test organism. After incubation period, following suitable conditions for the test organism, the diameter of the inhibition zone around the discs was measured in millimeters.
Each fungal species was grown on malt extract media at 28±2° C. for 14 days. The metabolites of the fungal species were screened for antimicrobial activity.

[3] = topical 5 mg mL^−1 once a day, n = 6
[4] = topical 5 mg mL^−1 once a day, n = 6, listed as compound 1 (adenosine)

Nc1ncnc2c1ncn2C1OC(CO)C(O)C1O (centres unmarked) [Compound 4, 2-(6-amino-9H-purine-9-yl)-5-(hydroxymethyl)oxolane-3,4-diol]
wound contraction ([1]; Day 14, topical 5 mg mL^−1): 76.50% | Wound area on day 0 ([1]; day 0, topical 5 mg mL^−1 once a day, n = 6): 300 ± 0.0 mm^2 | Wound area on day 4 ([1]; day 4, topical 5 mg mL^−1 once a day, n = 6): 241.2 ± 4.23* mm^2 | Wound area on day 7 ([1]; day 7, topical 5 mg mL^−1 once a day, n = 6): 168.1 ± 2.18** mm^2 | Wound area on day 10 [1, 3]: 83.4±3.16 mm^2 | Wound area on day 10 [1, 4]: 85.6 ± 4.13*** mm^2 | Wound area on day 14 [1, 3]: 22.4±1.15 mm^2 | Wound area on day 14 [1, 4]: 23.3 ± 1.11*** mm^2 | Wound area on day 18 [1, 3]: 0.0 mm^2 | Wound area on day 18 [1, 4]: 0.0 ± 0.0 mm^2 | wound healing effect (in words) ([1]; topical 5 mg mL−1 on excised infected wound): effective in healing excision type of wounds; also recorded: good wound healing effect | Minimum inhibitory concentration (Staphylococcus aureus): 020 µg/mL (≈ 74.8 µM) | MIC (Staphylococcus aureus; read-out: Minimum inhibitory concentration): 20 µg/mL (≈ 74.8 µM) | Diameter of inhibition zone [2]: 00.0 mm
